Assay results published in patent US10898469B2, “Imidazolylamide derivative” (Sumitomo Dainippon Pharma Co., Ltd., priority 2016, dated 2021).
pIC50: −log10 of the molar value. Where a name gives a salt, the structure may show the parent alone.

Experiments:
Format in all cases: cell-based, human
HCT-116 cells [1] = test: Inhibition test for sphere-forming ability of cancer cells (Test Example 1), HCT-116; settings: for pIC50: HCT-116 cells, concentration for 50% inhibition of cell proliferation, read-out: IC50 (μmol/L) HCT-116 (Sphere IC50 value); for inhibitory effect on the sphere-forming ability of cancer cells: Test Example 1, summary in words, cell line not given (HCT-116, HT-29, FaDu tested)
Procedure, shortened: (§1)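 Under non-adherent, serum-free conditions with growth factors (EGF 20 ng/mL, bFGF 10 ng/mL), 350-800 cells per well formed spheres in the presence of test compound at 0.1% DMSO. Viable cell number after 4 days, by CellTiter-Glo, defined the 50% inhibitory concentration.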

HT-29 cells [2] = test: Inhibition test for sphere-forming ability of cancer cells (Test Example 1), HT-29; settings: concentration for 50% inhibition of cell proliferation, read-out: IC50 (μmol/L) HT-29 (Sphere IC50 value)
Procedure, shortened: as §1

FaDu cells [3] = test: Inhibition test for sphere-forming ability of cancer cells (Test Example 1), FaDu; settings: concentration for 50% inhibition of cell proliferation, read-out: IC50 (μmol/L) FaDu (Sphere IC50 value)
Procedure, shortened: as §1

HCT-116 cells [4] = test: Inhibition test for sphere-forming ability of cancer cells in the presence of BSA (Test Example 2), HCT-116; settings: for pIC50: HCT-116 cells, in the presence of 5% BSA, cultured 4 days; for inhibitory effect on the sphere-forming ability of cancer cells: Test Example 2, in the presence of 5% BSA, summary in words, cell line not given (HCT-116, HT-29, FaDu tested)
Procedure, shortened: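 Spheres grown 4 days in ultra-low-attachment wells, 350-800 cells/well, in DMEM/F12 with 2% B27, 20 ng/mL EGF, 10 ng/mL bFGF, 5 μg/mL insulin and 5% BSA; 0.1% DMSO final. Viable cells read by CellTiter-Glo luminescence; Sphere IC50 (μmol/L) for 50% proliferation inhibition.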

HT-29 cells [5] = test: Inhibition test for sphere-forming ability of cancer cells in the presence of BSA (Test Example 2), HT-29; settings: in the presence of 5% BSA, cultured 4 days
Description: (§2) Human colorectal cancer-derived HCT-116 cells, human colon-adenocarcinoma-derived HT-29 cells, and human pharyngeal cancer-derived FaDu cells were available from American Type Culture Collection (ATCC). HCT-116 cells and HT-29 cells were cultured at 37° C. under 5% CO2 using the McCoy's 5a medium containing 10% fetal bovine serum (FBS) and 1% penicillin/streptomycin, and FaDu cells were cultured at 37° C. under 5% CO2 using the MEM medium containing 10% FBS, 1% non-essential amino acid, 1% sodium pyruvate, 5% bovine serum albumin (BSA), and 1% penicillin/streptomycin. HCT-116 cells, HT-29 cells, and FaDu cells were seeded in a 384 Well Black Clear Bottom Ultra-Low Attachment Microplate (Corning Cat. No. 3827) in an amount of 350-800 cells/well using the DMEM/F12 medium containing 2% B27 supplement (GIBCO), 20 ng/mL epidermal growth factor (EGF) (peprotech), 10 ng/mL basic fibroblast growth factor (bFGF) (peprotech), 5 μg/mL insulin (Sigma), 5% bovine serum albumin (BSA), and 1% penicillin/streptomycin. Each test compound was added into each well to adjust the final concentration of DMSO to 0.1%, and the cells were cultured for 4 days. The number of viable cells in each well was then measured with CellTiter-Glo® Luminescent Cell Viability Assay (Promega) to calculate the concentration of each test compound for 50% inhibition of cell proliferation (Sphere IC50 value; μmol/L).
(§3) The experiment of Test Example 2 was performed for each compound of each Example.
(§4) The concentration of each test compound for 50% inhibition of cell proliferation (Sphere IC50 value; μmol/L) is shown in the following Table.

FaDu cells [6] = test: Inhibition test for sphere-forming ability of cancer cells in the presence of BSA (Test Example 2), FaDu; settings: in the presence of 5% BSA, cultured 4 days
Description: as §2, §3, §4

Row | SMILES | pIC50 (HCT-116 cells [1]; Homo sapiens) | pIC50 (HT-29 cells [2]; Homo sapiens) | pIC50 (FaDu cells [3]; Homo sapiens) | pIC50 (HCT-116 cells [4]; Homo sapiens, HCT-116, 96 h) | pIC50 (HT-29 cells [5]; Homo sapiens, 96 h) | pIC50 (FaDu cells [6]; Homo sapiens, 96 h) | pIC50 (HCT-116 cells [1]) | pIC50 (HT-29 cells [2]) | pIC50 (FaDu cells [3]) | pIC50 (HCT-116 cells [4]) | pIC50 (HT-29 cells [5]) | pIC50 (FaDu cells [6]) | inhibitory effect on the sphere-forming ability of cancer cells (HCT-116 cells [1]) | inhibitory effect on the sphere-forming ability of cancer cells (HCT-116 cells [4])
1 | COc1ccc(NC(=O)c2cn(Cc3cc(F)c(F)c(F)c3)cn2)cc1OC [Example 251, N-(3,4-Dimethoxyphenyl)-1-(3,4,5-trifluorobenzyl)-1H-imidazole-4-carboxamide] | 6.68 | 6.27 | 6.37 | 6.11 | 6.22 | 6.26 |  |  |  |  |  |  |  | 
2 | O=C(/C=C/c1ccc(F)c(OCCO)c1)Nc1cn(Cc2cccc(Cl)c2)cn1 [Example 40] | 6.32 | 6.74 | 7.30 | 5.13 | 5.48 | 6.24 |  |  |  |  |  |  |  | 
3 | COc1ccc(C(=O)Nc2cn(Cc3cccc(F)c3F)cn2)cc1OC [Example 147] |  |  |  |  |  |  | 6.11 | 6.08 | 5.51 | 5.17 | 5.22 | 6.04 |  | 
4 | O=C(/C=C/c1ccc(NCC(F)(F)F)nc1)Nc1cn(Cc2cccc(Cl)c2)cn1 [Example 15] |  |  |  |  |  |  | > 8.00 | 7.22 | 7.15 | 7.10 | 7.22 | 7.22 | particularly potent inhibitory effect | particularly potent inhibitory effect
5 | O=C(/C=C/C=C/c1ccccc1)Nc1cn(Cc2cccc(Cl)c2)cn1 [Example 46, (2E,4E)-N-(1-(3-Chlorobenzyl)-1H-imidazol-4-yl)-5-phenylpenta-2,4-dienamide] | 5.58 | 6.21 | 6.10 | < 5.00 | 5.12 | 5.33 |  |  |  |  |  |  |  | 
6 | CNc1ccc(C(=O)Nc2cn(Cc3cccc(Cl)c3)cn2)cn1 [Example 225] |  |  |  |  |  |  | 5.17 | 6.00 | 5.22 | < 5.00 | 5.19 | 5.23 |  | 
7 | COc1ccc(C(=O)Nc2cn(Cc3cccc(F)c3)cn2)cc1OC [Example 145] |  |  |  |  |  |  | 6.21 | 6.21 | 6.15 | 5.79 | 6.20 | 6.47 |  | 
8 | COc1ccc(C(=O)Nc2cn(Cc3c(F)c(F)c(F)c(F)c3F)cn2)cc1OC [Example 157] |  |  |  |  |  |  | 5.13 | 5.16 | 5.07 | < 5.00 | 5.13 | 5.25 |  | 
9 | COc1ccc(C(=O)Nc2cn(Cc3cc(F)ccc3F)cn2)cc1OC [Example 149] |  |  |  |  |  |  | 5.32 | 6.12 | 6.05 | 5.11 | 5.21 | 5.62 |  | 
10 | CNc1ccc(/C=C/C(=O)Nc2cn(Cc3cccc(Cl)c3)cn2)cn1 [Example 16] |  |  |  |  |  |  | 6.51 | 7.22 | 7.10 | 6.19 | 6.30 | 7.15 | particularly potent inhibitory effect | particularly potent inhibitory effect
11 | O=C(/C=C/c1ccc(F)c(OCCO)c1)Nc1cn(Cc2cccc(C(F)(F)F)c2)cn1 [Example 39, (E)-3-(4-Fluoro-3-(2-hydroxyethoxy)phenyl)-N-(1-(3-(trifluoromethyl)benzyl)-1H-imidazol-4-yl)acrylamide Hydrochloride] | 6.38 | 6.35 | 7.15 | 5.16 | 5.57 | 6.24 |  |  |  |  |  |  |  | 
